The values that follow come from US20230322761A1, “DEGRADATION OF BRUTON'S TYROSINE KINASE (BTK) BY CONJUGATION OF BTK INHIBITORS WITH E3 LIGASE LIGAND AND METHODS OF USE” (BEIGENE, LTD., priority 2020, published 2023).

The target in this experiment is T1, BTK (Homo sapiens, UniProt Q06187).
T1 construct: endogenous in cells; host or cells: TMD-8 cells
In words: BTK degradation in TMD-8 cells, HTRF assay after 6 h treatment. To be noted: for DC50: IC50 (DC50) of BTK degradation; for Dmax: TMD8, maximum percentage of inhibition (degradation). It counts as cell-based. On the procedure:
TMD-8 cells are treated with compounds diluted in 0.2% DMSO, dilution is done according to the following protocol: (1) make 500× stock solution in DMSO from 1 mM by 6-fold dilution, total 8 doses were included; (2) make 2× solution in cell culture medium by transferring 0.5 μl 500× stock solution into 125 μl medium; (3) 15 μl of 2× solution is added to cells and incubate for 6 h.
After 6 h treatment, add 10 μl 4×lysis buffer to each well; seal the plate and incubate 30 min at room temperature on a plate shaker; Once the cells are lysed, 16 μL of cell lysate are transferred to a PE 384-well HTRF detection plate; 4 μL of pre-mixed HTRF antibodies are added to each well; Cover the plate with a plate sealer, spin 1000 rpm for 1 min, Incubate overnight at room temperature; Read on BMG PheraStar with HTRF protocol (337 nm-665 nm-620 nm).
The IC50 (DC50) value of a compound can be obtained by fitting the following equation
Y=Bottom+(TOP−Bottom)/(1+((IC50/X)^hillslope))
Wherein, X and Y are known values, and IC50, Hillslope, Top and Bottom are the parameters obtained by fitting with software. Y is the inhibition percentage (calculated from the equation), X is the concentration of the compound; IC50 is the concentration of the compound when the 50% inhibition is reached. The smaller the IC50 value is, the stronger the inhibitory ability of the compound is. Vice versa, the higher the IC50 value is, the weaker the ability the inhibitory ability of the compound is; Hillslope represents the slope of the fitted curve, generally around 1*; Bottom represents the minimum value of the curve obtained by data fitting, which is generally 0%±20%; Top represents the maximum value of the curve obtained by data fitting, which is generally 100%±20%. The experimental data were fitted by calculating and analyzing with Dotmatics data analysis software.
Background: Time-resolved FRET reads energy transfer from a long-lived donor to a nearby acceptor.

T1 sequence (Q06187 whole entry): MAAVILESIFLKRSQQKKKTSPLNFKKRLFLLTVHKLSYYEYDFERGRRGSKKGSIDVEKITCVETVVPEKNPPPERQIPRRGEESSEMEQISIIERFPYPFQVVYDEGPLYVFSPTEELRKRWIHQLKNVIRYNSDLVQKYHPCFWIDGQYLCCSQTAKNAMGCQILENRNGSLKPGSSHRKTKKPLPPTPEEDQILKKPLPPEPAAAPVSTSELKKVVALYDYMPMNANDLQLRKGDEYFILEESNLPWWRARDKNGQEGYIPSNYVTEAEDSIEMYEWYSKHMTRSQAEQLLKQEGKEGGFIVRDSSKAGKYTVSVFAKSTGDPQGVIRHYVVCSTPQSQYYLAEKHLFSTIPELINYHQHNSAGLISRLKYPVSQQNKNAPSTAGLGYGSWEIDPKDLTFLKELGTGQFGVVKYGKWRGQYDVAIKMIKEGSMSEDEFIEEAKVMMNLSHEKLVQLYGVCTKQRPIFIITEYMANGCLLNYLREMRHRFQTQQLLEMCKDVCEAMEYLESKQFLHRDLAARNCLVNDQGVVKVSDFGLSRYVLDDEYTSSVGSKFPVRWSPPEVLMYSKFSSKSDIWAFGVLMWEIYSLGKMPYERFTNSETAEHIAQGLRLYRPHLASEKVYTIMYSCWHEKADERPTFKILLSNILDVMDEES

In the case of `COc1cc(N2CCC(CCN3CCC(c4ccc(-c5cnc6[nH]nc(-c7ccc(CNC(=O)c8nc(C(C)(C)C)no8)c(C)c7)c6c5)cc4)CC3)CC2)ccc1N1CCC(=O)NC1=O` [Example 28, 3-(tert-butyl)-N-(4-(5-(4-(1-(2-(1-(4-(2,4-dioxotetrahydropyrimidin-1(2H)-yl)-3-methoxyphenyl)piperidin-4-yl)ethyl)piperidin-4-yl)phenyl)-1H-pyrazolo[3,4-b]pyridin-3-yl)-2-methylbenzyl)-1,2,4-oxadiazole-5-carboxamide], it took 2.54 nM to reach half-maximal degradation (DC50) and the Dmax – broadly, the greatest extent of degradation seen – was determined as 97.1%.
For `Cc1cc(-c2n[nH]c3ncc(-c4ccc(C5CCN(CCc6ccc(OC7CCC(=O)NC7=O)cc6)CC5)cc4)cc23)ccc1CNC(=O)c1nc(C(C)(C)C)no1` (centres unmarked) [Example 29, 3-(tert-butyl)-N-(4-(5-(4-(1-(4-((2,6-dioxopiperidin-3-yl)oxy)phenethyl)piperidin-4-yl)phenyl)-1H-pyrazolo[3,4-b]pyridin-3-yl)-2-methylbenzyl)-1,2,4-oxadiazole-5-carboxamide], in that order: 3.2 nM and 95.4%.
In the same order, the values of `COc1cc(OCCCN2CCC(c3ccc(-c4cnc5[nH]nc(-c6ccc(CNC(=O)c7nc(C(C)(C)C)no7)c(C)c6)c5c4)cc3)CC2)ccc1C1CCC(=O)NC1=O` (centres unmarked) [Example 30, 3-(tert-butyl)-N-(4-(5-(4-(1-(3-(4-(2,6-dioxopiperidin-3-yl)-3-methoxyphenoxy)propyl)piperidin-4-yl)phenyl)-1H-pyrazolo[3,4-b]pyridin-3-yl)-2-methylbenzyl)-1,2,4-oxadiazole-5-carboxamide] are 8.19 nM and 97.5%.
For `Cc1cc(-c2n[nH]c3ncc(-c4ccc(N5CCN(CC6CCN(c7ccc(N8CCC(=O)NC8=O)cc7)CC6)CC5)cc4)cc23)ccc1CNC(=O)c1cn(C(C)(C)C)nn1` [Example 31, 1-(tert-butyl)-N-(4-(5-(4-(4-((1-(4-(2,4-dioxotetrahydropyrimidin-1(2H)-yl)phenyl)piperidin-4-yl)methyl)piperazin-1-yl)phenyl)-1H-pyrazolo[3,4-b]pyridin-3-yl)-2-methylbenzyl)-1H-1,2,3-triazole-4-carboxamide], in that order: 21.8 nM and 97.4%.
Turning to `Cc1cc(-c2n[nH]c3ncc(-c4ccc(N5CCN(CC6CCN(c7ccc(N8CCC(=O)NC8=O)cc7)CC6)CC5)cc4)cc23)ccc1CNC(=O)c1cnn(C(C)(C)C)c1` [Example 32, 1-(tert-butyl)-N-(4-(5-(4-(4-((1-(4-(2,4-dioxotetrahydropyrimidin-1(2H)-yl)phenyl)piperidin-4-yl)methyl)piperazin-1-yl)phenyl)-1H-pyrazolo[3,4-b]pyridin-3-yl)-2-methylbenzyl)-1H-pyrazole-4-carboxamide], the DC50 (usually the concentration giving 50% degradation) was found to be 2.55 nM and the Dmax is 93.6%.
For `Cc1cc(-c2n[nH]c3ncc(-c4ccc(N5CCN(CCc6ccc(C7CCC(=O)NC7=O)cc6)CC5)cc4)cc23)ccc1[C@@H](C)NC(=O)c1nc(C(C)(C)C)no1` (stereo partly drawn) [Example 33, 3-(tert-butyl)-N-((1R)-1-(4-(5-(4-(4-(4-(2,6-dioxopiperidin-3-yl)phenethyl)piperazin-1-yl)phenyl)-1H-pyrazolo[3,4-b]pyridin-3-yl)-2-methylphenyl)ethyl)-1,2,4-oxadiazole-5-carboxamide], in that order: 3.85 nM and 99.4%.
Consider `Cc1cc(-c2n[nH]c3ncc(-c4ccc(N5CCN(CCc6ccc(C7CCC(=O)NC7=O)c(F)c6)CC5)cc4)cc23)ccc1[C@@H](C)NC(=O)c1nc(C(C)(C)C)no1` (stereo partly drawn) [Example 34, 3-(tert-butyl)-N-((1R)-1-(4-(5-(4-(4-(4-(2,6-dioxopiperidin-3-yl)-3-fluorophenethyl)piperazin-1-yl)phenyl)-1H-pyrazolo[3,4-b]pyridin-3-yl)-2-methylphenyl)ethyl)-1,2,4-oxadiazole-5-carboxamide], for which the half-maximal degradation concentration (DC50) amounted to 3.39 nM and the Dmax turned out to be 95.6%.
